Laboratory results taken from ChEMBL document CHEMBL4422656, “Kallikrein 5 inhibitors identified through structure based drug design in search for a treatment for Netherton Syndrome” (Bioorg Med Chem Lett, 2019).

How the values were obtained:
Kallikrein-5 [1] = biological target: T1, Kallikrein-5 (Homo sapiens, UniProt Q9Y337); experiment: Inhibition of recombinant human FLAG-tagged KLK5 expressed in baculovirus infected sf9 insect cells using (Tos-Gly-Pro-Arg)2[R110].2TFA as substrate measured every 30 secs intervals for 5 mins by Rhodamine110 dye-based fluorescence assay
T1 sequence (Q9Y337 whole entry): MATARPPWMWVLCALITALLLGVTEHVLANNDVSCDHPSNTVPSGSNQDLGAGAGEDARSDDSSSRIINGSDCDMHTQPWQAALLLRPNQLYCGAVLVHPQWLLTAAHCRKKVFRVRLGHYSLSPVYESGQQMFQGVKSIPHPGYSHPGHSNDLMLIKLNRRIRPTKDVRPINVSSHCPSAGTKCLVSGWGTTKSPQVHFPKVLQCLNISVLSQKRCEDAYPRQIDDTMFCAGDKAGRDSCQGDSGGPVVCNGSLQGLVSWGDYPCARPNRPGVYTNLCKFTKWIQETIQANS

Kallikrein-1 = Kallikrein-1 (Homo sapiens, UniProt P06870); experiment: Inhibition of recombinant human N-terminal his-tagged KLK1 (19 to 262 residues) expressed in baculovirus infected sf9 insect cells using R110 labelled GSK3162232A as substrate measured every 30 secs intervals for 5 mins by Rhodamine110 dye-based fluorescence assay
Chain of Kallikrein-1 (P06870 whole entry, the tested form may be a part): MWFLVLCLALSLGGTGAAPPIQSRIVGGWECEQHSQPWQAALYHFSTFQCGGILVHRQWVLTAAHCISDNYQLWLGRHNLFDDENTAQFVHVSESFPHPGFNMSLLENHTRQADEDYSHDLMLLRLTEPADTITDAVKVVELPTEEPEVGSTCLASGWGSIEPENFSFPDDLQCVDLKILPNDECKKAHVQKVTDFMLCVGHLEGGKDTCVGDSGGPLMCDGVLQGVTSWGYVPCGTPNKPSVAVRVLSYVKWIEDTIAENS

Homo sapiens = species: Homo sapiens; experiment: Selectivity ratio of IC50 for recombinant human N-terminal his-tagged KLK1 (19 to 262 residues) to IC50 for recombinant human FLAG-tagged KLK5
Kallikrein-5 [2] = biological target: T1, Kallikrein-5; experiment: Inhibition of KLK5 (unknown origin) using Boc-Val-Pro-Arg-AMC substrate incubated for 15 mins by fluorescence assay
[3] = biological target: T2, Kallikrein-14 (Homo sapiens) (UniProt Q9P0G3); experiment: Inhibition of KLK14 (unknown origin) at 100 uM using Boc-Val-Pro-Arg- AMC substrate incubated for 15 mins by fluorescence assay
T2 sequence (whole entry): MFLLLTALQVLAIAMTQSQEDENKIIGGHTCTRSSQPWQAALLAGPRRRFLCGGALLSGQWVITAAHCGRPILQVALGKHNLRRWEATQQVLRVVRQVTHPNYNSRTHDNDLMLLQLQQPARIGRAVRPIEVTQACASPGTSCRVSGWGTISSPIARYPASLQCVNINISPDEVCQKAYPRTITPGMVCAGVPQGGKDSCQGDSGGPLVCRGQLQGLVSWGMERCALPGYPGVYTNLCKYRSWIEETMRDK

[4] = Dissociation constant, pKa of phenol group of the compound by UV spectrophotometric analysis; type: physicochemical
Kallikrein-5 [5] = biological target: T1, Kallikrein-5; experiment: Inhibition of recombinant human KLK5 using S-2288 substrate
Kallikrein-7 = Kallikrein-7 (Homo sapiens, UniProt P49862); experiment: Inhibition of recombinant human KLK7 using S-2586 substrate
Chain of Kallikrein-7 (P49862 whole entry): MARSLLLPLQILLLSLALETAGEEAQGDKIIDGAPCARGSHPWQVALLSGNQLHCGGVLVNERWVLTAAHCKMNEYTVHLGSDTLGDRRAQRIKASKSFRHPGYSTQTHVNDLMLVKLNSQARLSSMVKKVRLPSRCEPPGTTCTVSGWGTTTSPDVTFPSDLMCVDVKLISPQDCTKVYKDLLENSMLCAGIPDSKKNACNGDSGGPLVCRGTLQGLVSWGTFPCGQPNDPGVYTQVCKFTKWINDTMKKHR

Structure (SMILES) | IC50 (Kallikrein-5 [1]) [µM] | IC50 (Kallikrein-1) [µM] | also measured
N=C(N)c1ccc(NC(=O)N2CCCNC2=O)cc1 | 10 | 631 | Ratio IC50 (Homo sapiens): 100
O=C1Oc2ccccc2CC1C(=O)Oc1nccc2ccccc12 (stereo unspecified) | – | – | IC50 (Kallikrein-5 [2]): 7 µM; inhibition [3]: 61%
Cc1cc(C(=N)N)ccc1NC(=O)c1ccccc1O | 12.6 | 5.01 | –
N=C(N)c1ccc(NC(=O)c2ccccc2O)cc1 | 6.31 | 12.6 | pKa [4]: 6.8
CCOc1cc2c(=O)oc(-c3ccccc3OC)nc2cc1OC | – | – | IC50 (Kallikrein-5 [5]): 0.2 µM; IC50 (Kallikrein-7): 0.048 µM
Cn1cccc(C(=O)Nc2ccc(C(=N)N)cc2)c1=O | 158 | 501 | –
Cc1cccc(C(=O)Nc2ccc(C(=N)N)cc2)c1O | 7.94 | 3.16 | pKa [4]: 6.8
N=C(N)c1ccc(NC(=O)c2ccccc2O)c(F)c1 | 2.51 | 3.16 | –
Cn1c(C(=O)Nc2ccc(C(=N)N)cc2)nc2ccccc21 | 12.6 | 200 | Ratio IC50 (Homo sapiens): 10
N=C(N)c1ccc(NC(=O)C2CCCNC2=O)cc1 (stereo unspecified) | 10 | 501 | Ratio IC50 (Homo sapiens): 100

Continued, in another order:

IC50 (Kallikrein-5 [1]) [µM] | IC50 (Kallikrein-1) [µM] | Structure (SMILES) | also measured
20 | 12.6 | N=C(N)c1ccc(NC(=O)c2ccccc2O)cc1F | –
10 | 1.26 | COc1cccc(C(=O)Nc2ccc(C(=N)N)c(Cl)c2)c1O | –
5.01 | 0.126 | CCOc1cccc(C(=O)Nc2ccc(C(=N)N)cc2)c1O | –
1 | 0.251 | COc1cccc(C(=O)Nc2ccc(C(=N)N)c(F)c2)c1O | –
0.501 | 0.316 | COc1cccc(C(=O)Nc2ccc(C(=N)N)cc2)c1O | pKa [4]: 6.6
2.51 | 3.98 | N=C(N)c1ccc(NC(=O)c2cccc(O)c2O)cc1 | –
2.51 | 0.631 | N=C(N)c1ccc(NC(=O)c2cccc(Cl)c2O)cc1 | pKa [4]: 5
